The NIST ThermoML archive (doi:10.1016/j.tca.2011.10.009)

What was measured:
[1] = mn = molality of the nth substance listed, in mol/kg; conditions: 101 kPa, Liquid; for viscosity: Capillary tube (Ostwald / Ubbelohde) method; for mass density: Vibrating tube method
[2] = Liquid; for mass density: Vibrating tube method
[3] = refractive index (Na D-line) (dimensionless); mn = molality of the nth substance listed, in mol/kg; conditions: 298.15 K, 101 kPa, Liquid, Standard Abbe refractometry

C(=NCCN=Cc1ccccn1)c1ccccn1 [N,N'-bis(2-pyridinylmethylene)-1,2-ethanediamine] + CN(C)C=O
[1]
Conditions | mass density, 298.15 K [kg/m3] | mass density, 303.15 K [kg/m3] | mass density, 308.15 K [kg/m3] | mass density, 313.15 K [kg/m3] | viscosity, 298.15 K [mPa·s]
m1 = 0.0402 | 945.46 | 941.5 | 936.79 | 931.89 | 0.878
m1 = 0.0764 | 946.76 | 942.72 | 937.92 | 933.39 | 0.893
m1 = 0.1208 | 948.07 | 943.95 | 939.19 | 934.92 | 0.909
m1 = 0.1644 | 949.29 | 944.72 | 940.14 | 936.16 | 0.926

CN(C)C=O [dimethylformamide]
Conditions | viscosity [mPa·s]
[2], 298.15 K, 101 kPa, Capillary tube (Ostwald / Ubbelohde) method | 0.861

[2], 101 kPa
Conditions | mass density [kg/m3]
298.15 K | 944.09
303.15 K | 940.82
308.15 K | 935.79
313.15 K | 930.63

CCCCCCn1cc[n+](C)c1.[Br-] [3-hexyl-1-methyl-1H-imidazolium bromide]
Conditions | mass density [kg/m3]
[2], 298.15 K, 101.33 kPa | 1222.1

CCCCCCn1cc[n+](C)c1.[Br-] [3-hexyl-1-methyl-1H-imidazolium bromide] + CN(C)C=O
[1]
Conditions | mass density, 298.15 K [kg/m3] | mass density, 303.15 K [kg/m3] | mass density, 308.15 K [kg/m3] | mass density, 313.15 K [kg/m3] | viscosity, 298.15 K [mPa·s]
m1 = 2.17e-05 | – | – | – | – | 0.897
m1 = 4.17e-05 | – | – | – | – | 0.913
m1 = 6.26e-05 | – | – | – | – | 0.929
m1 = 7.78e-05 | – | – | – | – | 0.938
m1 = 9.98e-05 | – | – | – | – | 0.952
m1 = 0.0001171 | – | – | – | – | 0.969
m1 = 0.0001363 | – | – | – | – | 0.985
m1 = 0.0001507 | – | – | – | – | 0.997
m1 = 0.0001787 | – | – | – | – | 1.014
m1 = 0.0001961 | – | – | – | – | 1.022
m1 = 0.0233 | 945.6 | 942.35 | 937.3 | 932.21 | –
m1 = 0.0435 | 946.89 | 943.65 | 938.59 | 933.56 | –
m1 = 0.0658 | 948.29 | 945.07 | 939.99 | 935.02 | –
m1 = 0.0824 | 949.31 | 946.1 | 941.01 | 936.08 | –
m1 = 0.1049 | 950.67 | 947.48 | 942.38 | 937.52 | –
m1 = 0.1228 | 951.73 | 948.58 | 943.44 | 938.65 | –
m1 = 0.1428 | 952.91 | 949.77 | 944.62 | 939.88 | –
m1 = 0.1583 | 953.83 | 950.67 | 945.53 | 940.81 | –
m1 = 0.1869 | 955.45 | 952.33 | 947.16 | 942.51 | –
m1 = 0.2051 | 956.47 | 953.36 | 948.17 | 943.57 | –

[3]
Conditions | refractive index
m1 = 0.0233 | 1.4303
m1 = 0.0435 | 1.4306
m1 = 0.0658 | 1.4311
m1 = 0.0824 | 1.4316
m1 = 0.1049 | 1.432
m1 = 0.1228 | 1.4325
m1 = 0.1428 | 1.433
m1 = 0.1583 | 1.4336
m1 = 0.1869 | 1.4344
m1 = 0.2051 | 1.4347
